The source of these data is patent US8716284B2, “Adamantyl diamide derivatives and uses of same” (H. Lundbeck A/S, priority 2008, dated 2014).

Assay [1] deals with adult, male Sprague-Dawley rats. In words: Modified Geller-Seifter conflict test, anxiolytic effect. The following applies: for Statistically significant Active dose(s): oral, Geller-Seifter assay, ANOVA with Dunnett's test or t-test; for Geller-Seifter EDmin: rat conflict test, PO for Example 58. The assay is classed as in vivo, rat. How it is done: (§1) Examples 1, 2 and 58 were evaluated in vivo for anxiolytic effects using (1) mouse marble burying (mMB) methods similar to those described in [K. Njung'e, K. and S. L. Handley, Pharmacology, Biochemistry and Behavior, 1991, 38, 63-67] and (2) a modified Geller-Seifter conflict test described in [N. A. Moore et al. Behavioural Pharmacology. 1994, 5, 196-202].
More specifically for the Geller-Seifter Conflict testing, rodent operant chambers (ENV-007CT, Med Associates Inc. (Georgia, Vt.)) and sound-attenuating chambers (ENV-018MD, Med Associates Inc.) were used. Each chamber was equipped with a house light, cue lights, grid floor to deliver foot shocks via a programmable shocker, (ENV-414, Med Associates, Inc.) and food hopper. Two levers were located on either side of the food hopper, Rats were trained to only respond on the left lever. Food reinforcement was used (Dustless Precision Pellets, 45 mg, BioServ, (Frenchtown, N.J.)). MED-PCIV software (Med Associates) was used to run experimental sessions and collect data.
Prior to beginning the Conflict procedure, animals were initially trained to lever press on fixed ratio schedules (FR 1, 2, 5, and 10). Once animals obtained 25 rewards on a FR 10 schedule for 2 consecutive days, animals began training on a three component Conflict schedule. […] These three components were repeated twice in the same order during the daily 30 minute session.
Animals were tested using a Latin-squares design, on Wednesdays and Fridays. Animals served as their own controls and received all treatments. To maintain baseline performance, animals were also trained the remaining three weekdays.
Testing was performed using 12 adult, male Sprague-Dawley rats, weighing 426-567 g (Charles River Laboratories (Kingston, N.Y.)). Animals were pair-housed in colony rooms maintained at controlled temperature (68-72° F.) and a 12-h light/dark cycle (lights on 06:00). Animals were given free access to water, while food was limited to 15 g of Bacon Lover's Treats (BioServ) after training/testing Monday through Thursday. Friday through Sunday, animals had free access to Lab Diet 5012 Rat Diet (PMI Nutrition International, LLC, Brentwood, Mo.) until cages were changed and food removed on Sunday.
Testing included multiple tests where each test was performed to evaluate either a reference compound or a compound of the present invention. Reference anxiolytics included chlordiazepoxide, diazepam and buspirone, which were dissolved in saline or water and administered via SC, IP, and/or PO, Test compounds were dissolved in 20% beta-cyclodextrin, and the pH was adjusted to 7 with NaHCO3. For each test, the compound to be evaluated was tested at one or more doses (such as 10, 20, 30 and/or 50 mg/kg) via p.o. administration 60 minutes before the test using an injection volume of 2 mL/kg in comparison with a vehicle control group. Doses were measured in mg drug (salt form) per kg body weight. Data was analyzed using Repeated Measures ANOVA with post-hoc Dunnett's test.

The target of assay [2] is T1, rat metabotropic glutamate receptor 5 (mGluR5) (Rattus norvegicus, UniProt P31424).
T1 construct: expressed in transfected cells; host or cells: HEK 293
In words: Calcium mobilization assay (FLIPR) for negative or positive allosteric activity, HEK 293 cells. The assay is classed as cell-based. As to conditions: HEK293, negative allosteric modulation, inhibition of EC80 glutamate response; read-out: FLIPR maximum inhibition. The method in brief: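 Peak Fluo-4 calcium signal over 3 min at room temperature, minus basal, fitted by Hill equation, in stable rat mGluR5 HEK 293 cells (HBSS/HEPES pH 7.4, BSA, probenecid). Inhibition scored against EC80 glutamate, potentiation against EC20 glutamate, glutamate given with compound.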
(Calcium assays in cells follow changes in intracellular calcium, usually with a dye or a luminescent sensor.)

Another assay deals with adult, male CD1 mice. In words: Mouse marble burying (mMB) assay, anxiolytic effect. The assay is classed as in vivo. As to conditions: for mMB EDmin: SC given for Example 58. How it is done: as §1
More specifically for the mMB testing, adult, male CD1 mice (Charles River Laboratories (Kingston, N.Y.)), weighing 25 to 30 g, were used. All animals were group-housed in a standard colony room with a 12:12 light/dark cycle (lights on at 6:00 am) for at least one week prior to testing. Food and water were provided ad libitum. Animals were weighed, tail marked, and randomly assigned to treatment groups before testing.
For each test, sixty minutes after the injection of vehicle or test compound, or 30 min after injection of the positive control, buspirone, mice were individually placed into test cages containing 1.5 in of Aspen bedding (PWI brand) and two rows of 10 marbles (20 marbles per test cage total). Filter tops were used to cover each test cage. Thirty minutes later, mice were removed from test cages and returned to their home cages. The number of fully visible marbles (less than ⅔ covered with bedding) were counted and subtracted from 20 to arrive at the number of marbles buried. Twelve mice were tested per group.
Testing included multiple tests with each test performed to evaluate buspirone hydrochloride (BUS; Sigma Aldrich) (positive control) and/or a compound of the present invention. Each compound was dissolved immediately prior to testing in 20% beta-cyclodextrin (compound of the present invention) or distilled water (BUS) and administered at one or more doses (such as 3, 10, and/or 30 mg/kg) via subcutaneous (SC) or intraperitoneal (IP) injection at the indicated pretreatment times (i.e., 30, 60, or 120 min pretreatment). Doses were measured in mg drug (salt form) per kg body weight. Data was analyzed using one-way ANOVA with post-hoc Dunnett's test.

In the next assay the target is mGluR5 (Homo sapiens, UniProt P41594). In words: Radioligand binding assay, [3H]MPEP filtration binding to membrane homogenates. The following applies: 5 nM [3H]MPEP; Ki calculated from IC50 by Cheng-Prusoff. How it is done:
Binding assays were performed as described in [J. A. O'Brien et al. Mol. Pharmacol., 2003, 64, 731-740] with slight modifications. Briefly, after thawing, the membrane homogenates were resuspended in 50 mM Tris-HCl, 0.9% NaCl binding buffer at pH 7.4 to a final assay concentration of 40 μg protein/well for [^3H]methoxy-5-(2-pyridinylethynyl)pyridine ([^3H] MPEP) (American Radiolabeled Chemicals, Inc., St. Louis, Mo.) filtration binding. Incubations included 5 nM [^3H] MPEP, membranes and either buffer or varying concentrations of compound. Samples were incubated for 60 min at room temperature with shaking. Non-specific binding was defined with 10 μM MPEP. After incubation, samples were filtered over a GF/C filter (presoaked in 0.25% polyethyleneimine (PEI)) and then washed 4 times using a Tomtec® Harvester 96® Mach III cell harvester (Tomtec, Hamden, Conn.) with 0.5 mL ice-cold 50 mM Tris-HCl (pH 7.4).
IC50 values were derived from the inhibition curve and Ki values were calculated according to the Cheng and Prusoff equation of Ki=IC50/(1+[L]/Kd) described in [Y. Cheng and W. H. Prusoff Biochem. Pharmacol. 1973, 22, 3099-3108] where [L] is the concentration of radioligand and Kd is its dissociation constant at the receptor, derived from the saturation isotherm.

Structures are written as SMILES.

Chain of mGluR5 (P41594 21-1212): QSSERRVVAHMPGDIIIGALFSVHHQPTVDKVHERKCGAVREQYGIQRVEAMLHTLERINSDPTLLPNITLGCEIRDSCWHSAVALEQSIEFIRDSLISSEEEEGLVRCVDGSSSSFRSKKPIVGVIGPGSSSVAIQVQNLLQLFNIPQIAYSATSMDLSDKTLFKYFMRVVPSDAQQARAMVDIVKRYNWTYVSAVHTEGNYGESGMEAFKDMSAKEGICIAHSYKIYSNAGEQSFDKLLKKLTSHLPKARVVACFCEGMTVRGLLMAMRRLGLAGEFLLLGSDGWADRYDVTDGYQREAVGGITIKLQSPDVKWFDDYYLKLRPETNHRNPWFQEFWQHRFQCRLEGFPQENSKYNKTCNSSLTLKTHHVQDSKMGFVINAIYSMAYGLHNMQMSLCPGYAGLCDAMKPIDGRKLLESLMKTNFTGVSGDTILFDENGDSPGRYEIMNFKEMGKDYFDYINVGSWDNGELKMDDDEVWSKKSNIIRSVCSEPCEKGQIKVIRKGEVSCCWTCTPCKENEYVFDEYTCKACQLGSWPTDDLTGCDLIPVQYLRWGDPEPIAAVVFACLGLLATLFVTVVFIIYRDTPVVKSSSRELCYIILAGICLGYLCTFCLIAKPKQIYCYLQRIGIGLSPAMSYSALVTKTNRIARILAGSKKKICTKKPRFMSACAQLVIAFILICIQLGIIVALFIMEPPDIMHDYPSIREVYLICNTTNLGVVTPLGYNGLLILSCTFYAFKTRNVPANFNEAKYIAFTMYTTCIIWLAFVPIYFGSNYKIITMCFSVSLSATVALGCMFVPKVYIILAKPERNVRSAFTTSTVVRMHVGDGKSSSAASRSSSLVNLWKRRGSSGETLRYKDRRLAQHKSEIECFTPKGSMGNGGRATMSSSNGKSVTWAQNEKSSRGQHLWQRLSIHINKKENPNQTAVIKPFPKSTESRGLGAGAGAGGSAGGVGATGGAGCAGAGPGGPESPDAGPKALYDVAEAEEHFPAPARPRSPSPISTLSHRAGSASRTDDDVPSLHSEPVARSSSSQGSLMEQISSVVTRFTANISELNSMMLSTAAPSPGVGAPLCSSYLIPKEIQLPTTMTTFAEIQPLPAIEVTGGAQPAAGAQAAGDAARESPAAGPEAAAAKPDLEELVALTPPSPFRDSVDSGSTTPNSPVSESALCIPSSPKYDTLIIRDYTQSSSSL
T1 sequence (P31424 21-1171 isoform P31424-2 limits assumed): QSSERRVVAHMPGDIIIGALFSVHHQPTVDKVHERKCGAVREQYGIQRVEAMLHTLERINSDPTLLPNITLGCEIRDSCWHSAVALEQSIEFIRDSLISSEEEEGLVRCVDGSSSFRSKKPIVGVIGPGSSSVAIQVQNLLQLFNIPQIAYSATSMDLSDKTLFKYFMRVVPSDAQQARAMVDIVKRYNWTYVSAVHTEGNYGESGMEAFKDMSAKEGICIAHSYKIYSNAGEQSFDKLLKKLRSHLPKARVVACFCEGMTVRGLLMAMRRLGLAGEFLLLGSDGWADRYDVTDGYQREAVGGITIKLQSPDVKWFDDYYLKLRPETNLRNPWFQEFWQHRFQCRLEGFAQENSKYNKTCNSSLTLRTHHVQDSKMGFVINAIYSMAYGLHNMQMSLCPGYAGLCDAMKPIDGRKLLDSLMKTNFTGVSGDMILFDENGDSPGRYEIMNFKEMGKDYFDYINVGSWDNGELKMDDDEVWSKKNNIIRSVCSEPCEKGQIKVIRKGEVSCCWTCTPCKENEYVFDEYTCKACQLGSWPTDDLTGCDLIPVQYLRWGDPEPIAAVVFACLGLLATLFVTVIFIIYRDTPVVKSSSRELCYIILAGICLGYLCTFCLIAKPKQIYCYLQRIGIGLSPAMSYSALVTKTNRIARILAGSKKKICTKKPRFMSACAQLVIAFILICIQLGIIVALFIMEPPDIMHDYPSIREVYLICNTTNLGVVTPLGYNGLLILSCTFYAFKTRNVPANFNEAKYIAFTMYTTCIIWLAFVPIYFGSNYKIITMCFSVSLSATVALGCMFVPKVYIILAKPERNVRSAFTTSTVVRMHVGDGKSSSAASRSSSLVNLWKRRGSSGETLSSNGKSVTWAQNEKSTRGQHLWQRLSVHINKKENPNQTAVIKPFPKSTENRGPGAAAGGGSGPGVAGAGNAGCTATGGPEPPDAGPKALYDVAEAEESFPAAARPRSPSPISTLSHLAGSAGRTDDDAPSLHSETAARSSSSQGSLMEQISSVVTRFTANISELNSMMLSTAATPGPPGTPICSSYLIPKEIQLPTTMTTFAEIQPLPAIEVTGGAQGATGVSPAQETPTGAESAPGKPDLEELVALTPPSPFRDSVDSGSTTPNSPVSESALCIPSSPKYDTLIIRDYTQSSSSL

For `Cc1cccc(C(=O)NC23CC4CC(CC(NC(=O)c5cnccn5)(C4)C2)C3)n1` [Example 41, Pyrazine-2-carboxylic acid {3-[(6-methyl-pyridine-2-carbonyl)-amino]-adamantan-1-yl}-amide], in assay [1], the “Statistically significant Active dose(s)” value came to 30 mg/kg. For the same compound, the Emax in assay [2] was in the range of 63 to 99%.

Consider `Cc1cccc(C(=O)NC23CC4CC(C2)CC(NC(=O)c2cccc(C)n2)(C4)C3)n1` [Example 1, N,N′-(1,3-adamantylene)bis(6-methyl-pyridine-2-carboxamaide)], for which the “mMB EDmin” value in the assay with adult, male CD1 mice amounted to 3 mg/kg. Also, in assay [1], the “Statistically significant Active dose(s)” value was 50 mg/kg and the “Geller-Seifter EDmin” value is on record as 10 mg/kg. Besides, the Ki at mGluR5 is 6.7 nM. In addition, the Emax in assay [2] lay in the range of 90 to 99%.

On to `Cc1cncc(C(=O)NC23CC4CC(CC(NC(=O)c5ccccn5)(C4)C2)C3)n1` [Example 58, 6-Methyl-pyrazine-2-carboxylic acid {3-[(pyridine-2-carbonyl)-amino]-adamantan-1-yl}-amide], for which, in the assay on adult, male CD1 mice, the “mMB EDmin” value is reported as 10 mg/kg. For the same compound, the “Geller-Seifter EDmin” value in assay [1] amounted to 10 mg/kg. Also, the Ki at mGluR5 is 6 to 700 nM. For the same compound, in assay [2], the Emax fell in the range of 63 to 99%.

For `Cc1cnc(C(=O)NC23CC4CC(CC(NC(=O)c5cccc(F)c5)(C4)C2)C3)cn1` [Example 94, 5-Methyl-pyrazine-2-carboxylic acid [3-(3-fluoro-benzoylamino)-adamantan-1-yl]-amide], in assay [1], the “Statistically significant Active dose(s)” value worked out at 20 mg/kg. Moreover, at mGluR5, the Ki is 6 to 700 nM. Also, in assay [2], the Emax is 63 to 99%.

Regarding `O=C(NC12CC3CC(C1)CC(NC(=O)c1ccccn1)(C3)C2)c1ccccn1` [Example 2, N,N′-(1,3-adamantylene)bis(2-pyridinecarboxamide)], the “mMB EDmin” value in the assay with adult, male CD1 mice was found to be 30 mg/kg. In addition, the minimal effective dose in the assay with adult, male CD1 mice (SC injection, one-way ANOVA with Dunnett's test or t-test, read-out: Statistically significant Active Dose) was determined as 30 mg/kg. In addition, in assay [1], the “Statistically significant Active dose(s)” value worked out at 20 mg/kg and the “Geller-Seifter EDmin” value is 20 mg/kg. The Ki at mGluR5 is 40 nM. The Emax in assay [2] is 90 to 99%.

By Ki is commonly meant a dissociation constant, usually derived from enzyme kinetics or from competition with a known ligand.
